In BindingDB's records for doi:10.1021/acs.jmedchem.3c00566 (Sichuan University, 2023):

Legend:
[1] = biological target: Cyclin-dependent kinase 2 (Homo sapiens, UniProt P24941); assay: Inhibition of CDK2 (unknown origin) expressed in baculovirus infected Sf9 cells in presence of [gamma-33p]-ATP and ATP
[2] = biological target: Cyclin-dependent kinase 5/p25; assay: Inhibition of CDK5/p25 (unknown origin)
[3] = biological target: Cyclin-dependent kinase 2/cyclin A; assay: Inhibition of CDK2/cyclin A (unknown origin)

Question: `CC(C)c1n[nH]c2c(NCc3ccc(-c4ccccn4)cc3)nc(NCC(C)(C)O)nc12` was tested. Which IC50 [1] did it give?
Answer: Its IC50 is 9 nM.

Question: For `Cc1cc(S(=O)(=O)NCCOCCOCCOCCOCCNc2cccc3c2C(=O)N(C2CCC(=O)NC2=O)C3=O)ccc1Nc1ncc(Br)c(Nc2cccc(F)c2C(N)=O)n1` (stereo not drawn), which IC50 [2] is on record?
Answer: Its IC50 is 6.8 nM.

Question: How did the IC50 [3] turn out when `O=C(Nc1csc(Cc2c(Cl)cccc2Cl)n1)NN1CCOCC1` [1-[2-(2,6-Dichloro-benzyl)-thiazol-4-yl]-3-morpholin-4-yl-urea] was run?
Answer: Its IC50 is 10 µM.
